Assay results taken from article PMC6178282, “Comparative cell biological study of in vitro antitumor and antimetastatic activity on melanoma cells of GnRH-III-containing conjugates modified with short-chain fatty acids” (Beilstein Journal of Organic Chemistry, 2018).
Read-outs that look alike come from different tables or passages of the source.

What was measured:
[1] = system: A2058 melanoma cells; assay: xCELLigence impedance-based long-term antiproliferative/cytotoxic measurement; assay type: cell-based, human; settings: for IC50: Homo sapiens
Description: One of the major requirements for a drug-delivery conjugate is the ability to provide the antitumor activity of the attached drug inside the cells. The antiproliferative/cytotoxic effect of conjugates was investigated by an impedimetric technique, xCELLigence System (ACEA Biosciences, San Diego, CA, USA). The real-time measurement of the impedance change, which is in direct correlation with the number of adhered cells on an electrode surface, makes this impedimetric assay sensitive enough for cytotoxicity experiments. In the event of a cytotoxic compound, the cells detach from the electrode surface and a drop in the impedance – given as Cell index values – could be observed.
IC50 values – a concentration that decreases the cell viability by 50% – were calculated from Cell index values obtained at 48 h and 72 h for each concentration and used for comparing the effects of conjugates. It is clearly seen that the presence of acylated Lys could increase almost 10-fold the antitumor activity (p < 0.001) of parent conjugate (GnRH-III(Dau=Aoa)). […]
Cell proliferation and cytotoxicity measurement
The antiproliferative/cytotoxic effect of conjugates compared with Dau was assessed using the xCELLigence SP System (ACEA Biosciences, San Diego, CA, USA). This system uses a so-called E-plate having gold microelectrodes covered the surface of each well and quantifies different cellular activities (e.g. cell proliferation, cell adhesion) by real-time measuring the impedance. The detected impedance change is in direct correlation with the cell number or the electrode surface covered by the attached cells. A relative and dimensionless parameter, Cell index (CI), was calculated from the detected impedance change by the following formula: […]
where Zi is the impedance at a given time point, Z0 is the impedance at t = 0 h, and Fi is a constant depending on the frequency (F10kHz = 15). […]
For the treatment of the cells, the conjugates and the free drug were applied in 10−12–10−4 M final concentrations and the cells were monitored for further 72 h. […]
In order to evaluate whether the conjugates could elicit their antiproliferative/cytotoxic character in short-term, A2058 cells (10^4 cells/well) were seeded in 96-well plate 24 h before the treatment. […] After treating the cells with compounds in 10−6–10−5 M concentrations, where their most significant cytotoxic effect was detected in case of the long-term treatments, the cells were washed twice with serum-free medium and cultured for further 48 h in serum-containing medium. The viability of cells was determined by alamarBlue-assay (Thermo Fisher Scientific, Waltham, MA, USA) according to the manufacturer’s instruction. After 4 h incubation with the alamarBlue® reagent, the fluorescence intensity of the reaction product

[2] = system: A2058 melanoma cells; assay: Cell cycle analysis, propidium iodide flow cytometry; assay type: cell-based, human; settings: 10^−5 M, 24 h
Protocol: Since the conjugates had no or minor apoptotic effect, the cell cycle kinetics of the cells treated with GnRH-III-based conjugates was also investigated to reveal the mechanism of growth inhibition of these conjugates. The distribution of the control and treated cells in the different cell cycle phases was analyzed by measurements of relative DNA contents of individual cells by flow cytometry after propidium iodide (Sigma-Aldrich, St. Louis, MO, USA) staining. […] In parallel, a decrease in the proportions of cells in G1/G0 and G2/M phase and an increase in the percentage of S phase cells were also observed.
Figure 4 Effects of conjugates and daunorubicin (Dau) on cell cycle progression of A2058 melanoma cells. The model cell was incubated with the compounds at 10^−5 M concentration for 24 h. Results are expressed as a percentage of cells in the sub-G1 area and the major phases (G1/G0, S and G2/M) of the cell cycle. Data shown in the figure represent mathematical averages of two parallel measurements. […]
Jose, CA, USA) was used to measure the DNA content of cells with propidium iodide (Sigma-Aldrich, St. Louis, MO, USA) intercalated stoichiometrically to the double-stranded […]
A2058 cells were seeded, treated and harvested in the same way described in section ‘Apoptosis assay’; then, the cells were fixed in ice-cold 70% ethanol and kept at −20 °C for 24 h. The samples were centrifuged and resuspended in RNase (100 μg/ml, Sigma-Aldrich, St. Louis, MO, USA) containing citric acid/sodium phosphate buffer (pH = 7.8). Propidium iodide was added to the sample in 10 μg/ml concentration right before the flow cytometric measurements collecting at 25000 cells/sample.
Data were analyzed by CellQuest Pro and Flowing 2.5.1 (Turku Centre of Biotechnology, Turku, Finland) software. For aggregate/debris discrimination, FL2-Width vs FL2-Area plot […]
values to each population of cell cycle stages.
Measurement of cell adhesion […]
xCELLigence SP System ( ACEA Biosciences, San Diego, CA, USA).
The adhesion assay, analogous to the description in [5], was started with a background measurement as mentioned above in the section “Cell proliferation and cytotoxicity measurement”. In the next steps, the compounds were added in the concentration range of 10−8–10−5 M and the cells were loaded into the wells at a concentration of 10^4 cells/well. […]
NeuroProbe® MBB 96 chamber (NeuroProbe, Gaithersburg, MD, USA) by using polycarbonate filters with pore size 8 μm. To quantify the number of the chemotactically active cells, the alamarBlue-assay was applied as explained above. The ‘Chemotaxis index (Chtx. ind.) plotted in Figure 6 was calculated from the average of 8 parallel measurements and expressed as a percentage of control.

[3] = A2058 cells, Cell index time course, Figure S5

For `COc1cccc2c1C(=O)c1c(O)c3c(c(O)c1C2=O)C[C@@](O)(C(C)=O)C[C@@H]3O[C@H]1C[C@H](N)[C@H](O)[C@H](C)O1` [daunorubicin], the “concentrations at which the tumor-growth inhibitory effect was elicited (time-course study)” value [1, 3] was 10^–6 to 10^−4 M, the “time after treatment at which the effect on Cell index set in” value [1, 3] was 0 to 5 h and the IC50 ([1]; A2058, 48 h, read-out: 48 h IC50) was 190 ± 17 nM. For the same compound, the IC50 ([1]; A2058, 72 h, read-out: 72 h IC50) was 53 ± 9 nM, the “percentage of S phase cells” value ([2]; compared with control) was “increase” and the “percentage of cells in sub-G1 phase” value ([2]; control 3.4%, average of two parallels) was 14.1%. The “percentage of cells in G2/M phase” value ([2]; control 34.3%, average of two parallels) was “decrease” and the “percentage of cells in G1/G0 phase” value ([2]; control 47.6%, average of two parallels) was “decrease”.
